Results on 15 compounds are retold here after US8871753B2, “Macrocyclic compounds and their use as kinase inhibitors” (Incyte Corporation, priority 2008, dated 2014).

Data set [1] has as its target T1, human JAK1 (a.a. 837-1142) (Homo sapiens, UniProt P23458).
T1 construct: human JAK1 (a.a. 837-1142); His tag (N); made in house; host or cells: insect cells (baculovirus)
In words: In vitro JAK kinase assay (HTRF, phosphorylation of a biotinylated peptide), JAK1. In kind it is biochemical. The conditions noted are these: read-out: JAK1 IC50. In short, it runs like this: (§1)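 Kinase reactions ran at room temperature for 1 h with ATP matched per isoform (JAK1 90 μM, JAK2 30 μM, JAK3 3 μM). After an EDTA stop, the phosphorylated biotin-peptide was read by HTRF using Eu-Py20 and SA-APC after 40 min binding.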
(Time-resolved FRET reads energy transfer from a long-lived donor to a nearby acceptor.)

Data set [2] has as its target T2, Recombinant Human Anaplastic Lymphoma Kinase (Homo sapiens, UniProt Q9UM73).
T2 construct: purchased Invitrogen, Carlsbad, Calif
In words: ALK HTRF kinase assay. In kind it is biochemical. The conditions noted are these: for ALK % inhibition at a concentration of 500 nM or 1 mM: compound at a concentration of 500 nM or 1 mM. The method, boiled down: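 TR-FRET read-out (Eu anti-pTyr antibody + streptavidin-APC) of biotin-peptide phosphorylation by recombinant human enzyme; IC50 by sigmoidal fit with top/bottom baselines and Hill slope.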

The conditions of data set [3]: cn_pd bond, 13-membered ring, Pd(OAc)2/Xantphos/Cs2CO3/Et3N.
Data set [4] addresses T3, human JAK3 (a.a. 781-1124) (Homo sapiens, UniProt P52333).
T3 construct: JAK3 (a.a. 781-1124); His tag (N); made in house; host or cells: insect cells (baculovirus)
In words: In vitro JAK kinase assay (HTRF, phosphorylation of a biotinylated peptide), JAK3. The format is biochemical. In short, it runs like this: as §1

In data set [5] the target is T4, human JAK2 (a.a. 828-1132) (Homo sapiens, UniProt O60674).
T4 construct: JAK2 (a.a. 828-1132); His tag (N); made in house; host or cells: insect cells (baculovirus)
In words: In vitro JAK kinase assay (HTRF, phosphorylation of a biotinylated peptide), JAK2. In kind it is biochemical. The method, boiled down:
as §1

Another data set addresses TYK2 (Homo sapiens, UniProt P29597). In words: TYK2 kinase inhibition (Table A1). The format is biochemical.
For data set [6] the following is noted: patients; cited from earlier work.
The conditions of data set [7]: cn_pd bond, 13-membered ring.
Data set [8] concerns IL-6-dependent MM cell lines. Particulars: cited from earlier work.
Another data set has as its system NOD mouse. Particulars: NOD mouse model of autoimmune type 1 diabetes; cited from earlier work.
For data set [9] the following is noted: from COc1ccc(Nc2nc(Cl)ncc2Cl)cc1CCc1cncc(N)c1; cn_pd bond; 13-membered ring; Pd(OAc)2/Xantphos/Cs2CO3; 1,4-dioxane/DMF 1:1; 77.0 mM; 150.0 °C; 0.33 h.
The subject of data set [10] is myeloid dendritic cells (DCs). Particulars: CD40-induced maturation of myeloid DCs; cited from earlier work.

Where two headings read alike, the source gives them in different places.

T4 sequence (O60674 828-1132): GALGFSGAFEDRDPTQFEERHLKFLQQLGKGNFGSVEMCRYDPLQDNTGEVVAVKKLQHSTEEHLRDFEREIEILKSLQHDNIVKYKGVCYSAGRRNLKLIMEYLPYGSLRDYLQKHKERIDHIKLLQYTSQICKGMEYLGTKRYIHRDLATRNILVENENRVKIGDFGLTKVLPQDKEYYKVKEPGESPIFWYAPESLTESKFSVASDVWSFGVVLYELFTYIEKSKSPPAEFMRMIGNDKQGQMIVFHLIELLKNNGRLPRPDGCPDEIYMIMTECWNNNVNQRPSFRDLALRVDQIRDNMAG
Sequence of TYK2 (P29597 whole entry): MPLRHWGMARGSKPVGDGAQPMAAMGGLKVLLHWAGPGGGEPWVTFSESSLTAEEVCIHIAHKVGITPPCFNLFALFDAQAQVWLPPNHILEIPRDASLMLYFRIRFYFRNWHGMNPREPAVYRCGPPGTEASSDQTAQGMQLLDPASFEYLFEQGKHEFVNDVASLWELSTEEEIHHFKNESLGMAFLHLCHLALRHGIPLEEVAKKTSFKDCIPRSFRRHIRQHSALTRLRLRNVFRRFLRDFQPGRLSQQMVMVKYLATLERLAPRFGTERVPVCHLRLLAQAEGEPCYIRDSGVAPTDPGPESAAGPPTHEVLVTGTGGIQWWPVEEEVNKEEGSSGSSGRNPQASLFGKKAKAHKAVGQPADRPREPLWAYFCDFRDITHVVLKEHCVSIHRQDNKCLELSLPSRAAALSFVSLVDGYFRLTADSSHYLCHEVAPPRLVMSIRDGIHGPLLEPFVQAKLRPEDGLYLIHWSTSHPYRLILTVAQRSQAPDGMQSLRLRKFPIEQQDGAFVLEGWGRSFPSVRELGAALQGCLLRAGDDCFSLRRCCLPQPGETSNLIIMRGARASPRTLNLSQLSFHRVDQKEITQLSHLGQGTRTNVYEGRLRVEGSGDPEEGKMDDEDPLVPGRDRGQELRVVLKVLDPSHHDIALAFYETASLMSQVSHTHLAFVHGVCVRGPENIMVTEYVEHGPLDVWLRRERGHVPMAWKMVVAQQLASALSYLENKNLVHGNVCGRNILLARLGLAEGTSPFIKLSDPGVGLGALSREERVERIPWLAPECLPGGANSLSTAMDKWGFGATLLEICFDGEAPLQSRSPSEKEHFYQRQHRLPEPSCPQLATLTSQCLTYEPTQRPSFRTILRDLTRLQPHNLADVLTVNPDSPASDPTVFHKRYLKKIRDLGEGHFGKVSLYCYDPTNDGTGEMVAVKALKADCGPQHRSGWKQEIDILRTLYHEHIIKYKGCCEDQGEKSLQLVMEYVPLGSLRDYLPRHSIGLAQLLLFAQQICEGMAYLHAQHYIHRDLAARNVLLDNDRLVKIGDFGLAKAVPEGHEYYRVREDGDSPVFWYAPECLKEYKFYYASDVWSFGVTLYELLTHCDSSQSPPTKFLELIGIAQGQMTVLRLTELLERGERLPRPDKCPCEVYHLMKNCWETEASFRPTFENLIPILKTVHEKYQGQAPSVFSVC
T3 sequence (P52333 781-1124): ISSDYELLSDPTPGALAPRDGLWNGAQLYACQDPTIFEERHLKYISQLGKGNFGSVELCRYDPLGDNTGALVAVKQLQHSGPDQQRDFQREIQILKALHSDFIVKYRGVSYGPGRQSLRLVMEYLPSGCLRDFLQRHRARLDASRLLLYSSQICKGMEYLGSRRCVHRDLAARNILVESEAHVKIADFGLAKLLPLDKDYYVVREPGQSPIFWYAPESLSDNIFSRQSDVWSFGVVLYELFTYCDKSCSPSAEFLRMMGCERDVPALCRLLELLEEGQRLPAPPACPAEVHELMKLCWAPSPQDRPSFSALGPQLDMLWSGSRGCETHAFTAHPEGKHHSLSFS
T2 sequence (Q9UM73 19-1620): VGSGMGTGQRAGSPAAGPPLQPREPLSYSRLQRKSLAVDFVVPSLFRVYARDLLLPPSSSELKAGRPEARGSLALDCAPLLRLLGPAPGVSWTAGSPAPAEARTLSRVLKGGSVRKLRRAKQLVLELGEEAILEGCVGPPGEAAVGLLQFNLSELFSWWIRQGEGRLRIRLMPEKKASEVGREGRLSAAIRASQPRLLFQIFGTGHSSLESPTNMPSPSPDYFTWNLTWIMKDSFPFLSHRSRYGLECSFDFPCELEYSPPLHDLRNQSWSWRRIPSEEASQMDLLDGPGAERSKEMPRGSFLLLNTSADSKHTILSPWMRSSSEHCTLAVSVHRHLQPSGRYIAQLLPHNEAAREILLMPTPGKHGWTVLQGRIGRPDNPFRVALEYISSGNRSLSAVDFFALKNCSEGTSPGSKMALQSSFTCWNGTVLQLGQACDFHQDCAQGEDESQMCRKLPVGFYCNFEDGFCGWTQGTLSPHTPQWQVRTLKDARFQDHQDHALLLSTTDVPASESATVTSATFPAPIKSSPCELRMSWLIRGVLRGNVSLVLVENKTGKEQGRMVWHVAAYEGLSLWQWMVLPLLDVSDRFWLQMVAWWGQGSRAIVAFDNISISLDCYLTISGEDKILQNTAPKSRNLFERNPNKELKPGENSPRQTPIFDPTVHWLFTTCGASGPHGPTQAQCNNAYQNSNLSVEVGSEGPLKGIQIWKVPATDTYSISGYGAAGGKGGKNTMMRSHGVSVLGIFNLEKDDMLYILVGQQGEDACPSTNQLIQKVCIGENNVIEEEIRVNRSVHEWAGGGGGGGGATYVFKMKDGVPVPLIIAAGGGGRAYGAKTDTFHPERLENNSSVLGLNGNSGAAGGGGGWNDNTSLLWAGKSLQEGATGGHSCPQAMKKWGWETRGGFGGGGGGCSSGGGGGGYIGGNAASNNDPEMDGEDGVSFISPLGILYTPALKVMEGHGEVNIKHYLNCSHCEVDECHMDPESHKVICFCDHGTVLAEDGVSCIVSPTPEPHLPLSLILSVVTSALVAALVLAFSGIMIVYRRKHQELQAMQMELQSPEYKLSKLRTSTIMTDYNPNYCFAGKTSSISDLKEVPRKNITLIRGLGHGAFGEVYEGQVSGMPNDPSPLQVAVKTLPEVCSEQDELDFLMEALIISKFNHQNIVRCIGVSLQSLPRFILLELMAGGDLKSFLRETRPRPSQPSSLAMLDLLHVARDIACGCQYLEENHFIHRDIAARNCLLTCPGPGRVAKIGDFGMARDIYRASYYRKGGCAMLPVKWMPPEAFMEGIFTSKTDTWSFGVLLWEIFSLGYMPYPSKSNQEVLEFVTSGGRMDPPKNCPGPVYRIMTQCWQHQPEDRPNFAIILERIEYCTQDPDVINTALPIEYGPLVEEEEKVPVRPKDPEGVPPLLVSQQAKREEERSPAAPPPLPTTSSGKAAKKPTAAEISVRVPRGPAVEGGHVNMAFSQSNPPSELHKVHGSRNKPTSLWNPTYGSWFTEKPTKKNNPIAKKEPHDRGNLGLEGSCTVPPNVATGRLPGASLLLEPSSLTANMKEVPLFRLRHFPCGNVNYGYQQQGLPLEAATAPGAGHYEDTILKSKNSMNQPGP
T1 sequence (P23458 849-1154): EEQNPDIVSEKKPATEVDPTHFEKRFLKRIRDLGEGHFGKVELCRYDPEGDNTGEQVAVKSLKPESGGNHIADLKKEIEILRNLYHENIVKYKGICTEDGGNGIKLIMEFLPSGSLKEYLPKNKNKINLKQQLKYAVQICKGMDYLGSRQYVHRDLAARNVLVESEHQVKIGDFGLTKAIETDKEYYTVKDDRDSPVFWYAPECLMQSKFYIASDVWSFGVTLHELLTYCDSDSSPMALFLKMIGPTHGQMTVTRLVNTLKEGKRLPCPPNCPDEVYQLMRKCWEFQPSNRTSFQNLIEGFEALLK

For `Clc1cnc2nc1Nc1cccc(c1)CCc1cc(ccn1)N2` [Example C12, 6-Chloro-2,4,8,17,22-pentaazatetracyclo[14.3.1.1(3,7).1(9,13)]docosa-1(20),3(22),4,6,9(21),10,12,16,18-nonaene], the IC50 in data set [1] came to 14 nM; in [4], 39 nM; in data set [5] it was 9.5 nM; at TYK2, 13 nM. Further, in [2], the “ALK % inhibition at a concentration of 500 nM or 1 mM” value (“ALK % inhibition at a concentration” below) was found to be 26%. In data set [3] (from Nc1ccnc(CCc2cccc(Nc3nc(Cl)ncc3Cl)c2)c1, 1,4-dioxane, 117.0 mM, 150.0 °C, 0.5 h), this compound yielded a ring closure, isolated yield of 36%.
As to `Fc1cnc2nc1Nc1cccc(c1)CCc1cc(ccn1)N2` [Example C13, 6-Fluoro-2,4,8,17,22-pentaazatetracyclo[14.3.1.1(3,7).1(9,13)]docosa-1(20),3(22),4,6,9(21),10,12,16,18-nonaene], the IC50 in [1] was determined as 70 nM; in data set [4], 154 nM; in data set [5], 17 nM; against TYK2 it was 16 nM. The “ALK % inhibition at a concentration” value in data set [2] is 18%. In data set [3] (from Nc1ccnc(CCc2cccc(Nc3nc(Cl)ncc3F)c2)c1, 1,4-dioxane, 120.0 mM, 150.0 °C, 0.5 h), this compound had a ring closure, isolated yield of 41%.
`Fc1cnc2nc1Nc1cccc(c1)CCc1ccnc(c1)N2` [Example C16, 6-Fluoro-2,4,8,19,22-pentaazatetracyclo[14.3.1.1(3,7).1(9,13)]docosa-1(20),3(22),4,6,9(21),10,12,16,18-nonaene]: the IC50 was greater than 1000 nM in data set [1], 350 nM in data set [4], 60 nM in data set [5] and 83 nM against TYK2. Moreover, the “ALK % inhibition at a concentration” value in [2] is 14%. The compound also registered a ring closure, isolated yield in [3] (from Nc1cc(CCc2cccc(Nc3nc(Cl)ncc3F)c2)ccn1, 1,4-dioxane/DMF 1:1, 60.0 mM, 160.0 °C, 0.5 h) of 30%.
With `C#Cc1cccc(Nc2ncnc3cc(OCCOC)c(OCCOC)cc23)c1` [Tarceva], the acneiform rash entry in [6] is “induced acneiform rash with some patients”.
With `Clc1cnc2nc1Nc1cccc(c1)CCc1cccc(n1)N2` [Example C17, 6-Chloro-2,4,8,20,22-pentaazatetracyclo[14.3.1.1(3,7).1(9,13)]docosa-1(20),3(22),4,6,9(21),10,12,16,18-nonaene], the half-maximal inhibitory concentration (IC50) (in data set [1]; in data set [4]; in [5]; against TYK2) was greater than 1000 nM each time. Besides, the “ALK % inhibition at a concentration” value in data set [2] turned out to be 1%. Moreover, the ring closure, isolated yield in data set [3] (from Nc1cccc(CCc2cccc(Nc3nc(Cl)ncc3Cl)c2)n1, 1,4-dioxane/DMF 1:1, 75.0 mM, 160.0 °C, 0.5 h) was determined as 37%.
As to `Clc1cnc2nc1Nc1cccc(c1)/C=C\c1cc(ccn1)N2` [Example C14, (14Z)-6-Chloro-2,4,8,17,22-pentaazatetracyclo[14.3.1.1(3,7).1(9,13)]docosa-1(20),3(22),4,6,9(21),10,12,14,16,18-decaene], the IC50 in data set [1] is 10 nM; in data set [4] it was 17 nM; in data set [5], 2.8 nM; against TYK2, 5.7 nM. Further, the “ALK % inhibition at a concentration” value in [2] turned out to be 19%. Besides, in [3] (from Nc1ccnc(/C=C\c2cccc(Nc3nc(Cl)ncc3Cl)c2)c1, 1,4-dioxane, 114.0 mM, 150.0 °C, 0.5 h), the ring closure, isolated yield stood at 35%.
`Clc1cnc2nc1Nc1cccc(c1)CCc1cncc(c1)N2` [Example C19, 6-Chloro-2,4,8,18,22-pentaazatetracyclo[14.3.1.1(3,7).1(9,13)]docosa-1(20),3(22),4,6,9(21),10,12,16,18-nonaene bis(trifluoroacetate)]: the ring closure, yield after HPLC in [7] (from Nc1cncc(CCc2cccc(Nc3nc(Cl)ncc3Cl)c2)c1, Pd(OAc)2/Xantphos/Cs2CO3/Et3N, 1,4-dioxane, 140.0 mM, 150.0 °C, 1.0 h) stood at 28%. The half-maximal inhibitory concentration (IC50) in data set [1] worked out at 2.9 nM; in data set [4] it was 28 nM; in data set [5], 7 nM; at TYK2 it was 10 nM. The “ALK % inhibition at a concentration” value in [2] turned out to be 45%.
Regarding `CC(C)(C)c1nc2c3cc[nH]c(=O)c3c3cc(F)ccc3c2[nH]1` [pyridone 6], in [8], the STAT3 phosphorylation entry is given as “inhibited”; the “tumor cell proliferation and survival” value is listed as “inhibited”.
With `Clc1cnc2nc1Nc1cccc(c1)CCc1ccnc(c1)N2` [Example C15, 6-Chloro-2,4,8,19,22-pentaazatetracyclo[14.3.1.1(3,7).1(9,13)]docosa-1(20),3(22),4,6,9(21),10,12,16,18-nonaene], the results for the concentration for half-maximal inhibition (IC50) (in data set [1]; in [5]; at TYK2) were 700 nM, 87 nM and 106 nM, respectively. Besides, the “ALK % inhibition at a concentration” value in data set [2] was found to be 6%. This compound showed a ring closure, isolated yield in [3] (from Nc1cc(CCc2cccc(Nc3nc(Cl)ncc3Cl)c2)ccn1, 1,4-dioxane/DMF 1:1, 57.0 mM, 160.0 °C, 0.33 h) of 61%.
For `COc1cc2ncnc(Nc3ccc(O)cc3)c2cc1OC` [JANEX-1], the onset of diabetes entry with NOD mouse was “delayed the onset of diabetes”.
`COc1ccc2cc1CCc1cncc(c1)Nc1ncc(Cl)c(n1)N2`: in data set [9], the ring closure, crude yield stood at 85%.
In the case of `COc1cc2ncnc(Nc3ccc(O)c(Br)c3)c2cc1OC` [WHI-P-154], the “CD40-induced effects (JAK3 activity, costimulatory molecule expression, IL-12 production, allogeneic stimulatory capacity)” value in data set [10] is “prevented these effects”.
For the compound `Fc1cnc2nc1Nc1cccc(c1)CCc1cccc(n1)N2` [Example C18, 6-Fluoro-2,4,8,20,22-pentaazatetracyclo[14.3.1.1(3,7).1(9,13)]docosa-1(20),3(22),4,6,9(21),10,12,16,18-nonaene], the IC50 (in data set [1]; in [4]; in data set [5]; at TYK2) was greater than 1000 nM in each case. For the same compound, in data set [2], the “ALK % inhibition at a concentration” value is given as 3%. In data set [3] (from Nc1cccc(CCc2cccc(Nc3nc(Cl)ncc3F)c2)n1, 1,4-dioxane/DMF 1:1, 60.0 mM, 160.0 °C, 1.0 h), the ring closure, isolated yield turned out to be 25%.
For the compound `Fc1cnc2nc1Nc1cccc(c1)CCc1cncc(c1)N2` [Example C21, 6-Fluoro-2,4,8,18,22-pentaazatetracyclo[14.3.1.1(3,7).1(9,13)]docosa-1(20),3(22),4,6,9(21),10,12,16,18-nonaene bis(trifluoroacetate)], the ring closure, yield after HPLC in data set [7] (from Nc1cncc(CCc2cccc(Nc3nc(Cl)ncc3F)c2)c1, Pd(OAc)2/Xantphos/Cs2CO3/Et3N, 1,4-dioxane, 87.0 mM, 150.0 °C, 2.0 h) amounted to 37%. Also, the IC50 in data set [1] stood at 13 nM; in data set [4], 111 nM; in data set [5] it was 28 nM; on TYK2, 15 nM. Further, the “ALK % inhibition at a concentration” value in data set [2] turned out to be 26%.
In data set [7] (from Nc1cncc(CCc2cc(Nc3nc(Cl)ncc3Cl)ccc2N)c1, Pd2(dba)3/Xantphos/Cs2CO3/DIEA, 1,4-dioxane/DMF 3:1, 77.0 mM, 160.0 °C, 0.5 h), `Nc1ccc2cc1CCc1cncc(c1)Nc1ncc(Cl)c(n1)N2` [Example B20, 6-Chloro-2,4,8,18,22-pentaazatetracyclo[14.3.1.1(3,7).1(9,13)]docosa-1(20),3(22),4,6,9(21),10,12,16,18-nonaen-12-amine tris(trifluoroacetate)] showed a ring closure, yield after HPLC of 23%. For the same compound, the IC50 in data set [1] (Table B1) was determined as 1 nM; in [4] (Table B1), 6.7 nM; in [5] (Table B1) it was 1.3 nM; on TYK2 (Table B1) it was 1.6 nM. In data set [2] (compound at a concentration of 500 nM or 1 mM (not specified), cells shown as percentage), the “ALK % of inhibition at a concentration of 500 nM or 1 mM” value is on record as 51%.

What is called IC50 is the concentration needed to halve the response being measured.
